Results taken from ChEMBL document CHEMBL1201862, “PubChem BioAssay data set” (2004).
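Grown in 96-well plates, cells were treated for 48 hours with each compound at five concentrations. Insufficient inhibition: endpoint recorded as highest concentration tested. The concentration for 50% growth inhibition is given as GI50.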 Active and inactive are the calls of the source. Cut-off read from the data, not from the text of the source: active = GI50 up to about 1.1 µM and inactive = higher.

Experiments:
Experiment in all cases: NCI tumour cell line growth inhibition, 48 h
OVCAR-3 = test system: OVCAR-3
KM-20L2 = test system: KM-20L2
HCC 2998 = test system: HCC 2998
MOLT-4 = test system: MOLT-4
RPMI-8226 = test system: RPMI-8226
NCI-H522 = test system: NCI-H522
M14 = test system: M14
HCT-116 = test system: HCT-116
HL-60 = test system: HL-60
SK-MEL-5 = test system: SK-MEL-5
EKVX = test system: EKVX
DLD-1 = test system: DLD-1
HOP-62 = test system: HOP-62
IGROV-1 = test system: IGROV-1
NCI-H226 = test system: NCI-H226

Compound | GI50 (OVCAR-3) | GI50 (KM-20L2) | GI50 (HCC 2998) | GI50 (MOLT-4) | GI50 (RPMI-8226) | GI50 (NCI-H522) | GI50 (M14) | GI50 (HCT-116) | GI50 (HL-60) | GI50 (SK-MEL-5) | GI50 (EKVX) | GI50 (DLD-1) | GI50 (HOP-62) | GI50 (IGROV-1) | GI50 (NCI-H226)
COc1ccc(COC2CC(OC)OC(C)C2OC(=O)c2ccccc2)cc1 (centres undefined) | 31.9 µM (inactive) | 14.7 µM (inactive) | 43.1 µM (inactive) | 15.6 µM (inactive) | 18.5 µM (inactive) | 30.6 µM (inactive) | 34.6 µM (inactive) | 28.6 µM (inactive) | 20.7 µM (inactive) | 17 µM (inactive) | 70.1 µM (inactive) | 18.7 µM (inactive) | > 73.5 µM (inactive) | 90.4 µM (inactive) | 21.7 µM (inactive)
Cc1cc(S(=O)(=O)O)c(NC(=O)C(=O)Cc2cc(=O)oc3cc(O)ccc23)cc1Cl | > 100 µM (inactive) | > 100 µM (inactive) | > 100 µM (inactive) | > 100 µM (inactive) |  | > 100 µM (inactive) | > 100 µM (inactive) | > 100 µM (inactive) | > 100 µM (inactive) | > 100 µM (inactive) | > 100 µM (inactive) | > 100 µM (inactive) | > 100 µM (inactive) | > 100 µM (inactive) | > 100 µM (inactive)
CC1(C)Oc2ccccc2[N+]([O-])=C1c1ccccc1 | > 100 µM (inactive) | > 100 µM (inactive) | > 100 µM (inactive) | > 100 µM (inactive) | > 100 µM (inactive) | > 100 µM (inactive) | > 100 µM (inactive) | > 100 µM (inactive) | > 100 µM (inactive) | > 100 µM (inactive) |  | > 100 µM (inactive) | > 100 µM (inactive) | > 100 µM (inactive) | 
c1ccc2c(c1)cc1n2CC2CN=NC12 (centres undefined) | > 100 µM (inactive) | > 100 µM (inactive) | > 100 µM (inactive) | > 100 µM (inactive) | > 100 µM (inactive) | > 100 µM (inactive) | > 100 µM (inactive) | > 100 µM (inactive) | > 100 µM (inactive) | > 100 µM (inactive) | > 100 µM (inactive) | > 100 µM (inactive) | > 100 µM (inactive) | > 100 µM (inactive) | > 100 µM (inactive)
Cn1cc(C(=O)c2ccccc2)cc(C(=O)c2ccccc2)c1=O | > 100 µM (inactive) | > 100 µM (inactive) | > 100 µM (inactive) | > 100 µM (inactive) | > 100 µM (inactive) | > 100 µM (inactive) | > 100 µM (inactive) |  | > 100 µM (inactive) | > 100 µM (inactive) | > 100 µM (inactive) | > 100 µM (inactive) | > 100 µM (inactive) | > 100 µM (inactive) | > 100 µM (inactive)
C=C(CCCCC)CN1CCCC1C(C)=O (centres undefined) | 27.9 µM (inactive) | 29.4 µM (inactive) | 32.4 µM (inactive) | 8.75 µM (inactive) | 13.1 µM (inactive) | 11.4 µM (inactive) | 41.5 µM (inactive) | 27.6 µM (inactive) | 4.32 µM (inactive) | 17.9 µM (inactive) | 35 µM (inactive) | 24.7 µM (inactive) | 22.3 µM (inactive) | 33.2 µM (inactive) | 22 µM (inactive)
N#C/N=C(/N)NCN/C(N)=N\C#N | > 100 µM (inactive) | > 100 µM (inactive) | > 100 µM (inactive) | > 100 µM (inactive) | > 100 µM (inactive) | > 100 µM (inactive) | > 100 µM (inactive) | > 100 µM (inactive) | > 100 µM (inactive) | > 100 µM (inactive) | > 100 µM (inactive) | 81.5 µM (inactive) | > 100 µM (inactive) | > 100 µM (inactive) | > 100 µM (inactive)
CCC1CN2CCc3cc(OC)c(OC)cc3C2CC1CC1c2cc(OC)c(OC)cc2CCN1C(=O)CNC(=O)OC(C)(C)C (centres undefined) | 11.9 µM (inactive) | 5.08 µM (inactive) | 3.1 µM (inactive) | 3.44 µM (inactive) | 19 µM (inactive) |  | > 10 µM (inactive) |  | 4.14 µM (inactive) | 6 µM (inactive) | 5.05 µM (inactive) | 4.67 µM (inactive) |  | 19.5 µM (inactive) | 18.3 µM (inactive)
Nc1ncn([C@@H]2C=C(CO)C(O)C2O)c(=O)n1 (some centres undefined) | > 100 µM (inactive) | 63.8 µM (inactive) | 56.2 µM (inactive) | 56.5 µM (inactive) | 37.7 µM (inactive) | > 100 µM (inactive) | 60.1 µM (inactive) | 39.2 µM (inactive) | 39.5 µM (inactive) | > 100 µM (inactive) | > 100 µM (inactive) | 58.2 µM (inactive) | 53.7 µM (inactive) | 70.1 µM (inactive) | 95.1 µM (inactive)
CCOC(=O)C1=C(OC(OCC)C([Se]c2ccccc2)C(C)C)CCC1 (centres undefined) | 15.1 µM (inactive) | 28.8 µM (inactive) | 36.8 µM (inactive) | 14.7 µM (inactive) | 10.1 µM (inactive) | 7.1 µM (inactive) | 15.8 µM (inactive) | 12.5 µM (inactive) | 3.24 µM (inactive) | 13 µM (inactive) | 18.8 µM (inactive) | 14.7 µM (inactive) | 68.7 µM (inactive) | 18.3 µM (inactive) | 13.7 µM (inactive)
Cc1nc(Nc2ccc(Cl)cc2)sc1C(=O)Nc1cccc2c(=O)[nH][nH]c(=O)c12 | 18.9 µM (inactive) | 11.8 µM (inactive) | 39.5 µM (inactive) | 19 µM (inactive) |  | 23.5 µM (inactive) | 17.6 µM (inactive) | 24 µM (inactive) | 8.75 µM (inactive) | 2.52 µM (inactive) | 8.34 µM (inactive) | 17.5 µM (inactive) | 35.6 µM (inactive) | 25.2 µM (inactive) | 83.6 µM (inactive)
O=S(=O)(C/C(=N\O)c1ccccc1)c1ccccc1 | > 100 µM (inactive) | > 100 µM (inactive) | > 100 µM (inactive) | > 100 µM (inactive) | > 100 µM (inactive) | 57.9 µM (inactive) | > 100 µM (inactive) | > 100 µM (inactive) | > 100 µM (inactive) | > 100 µM (inactive) | > 100 µM (inactive) | > 100 µM (inactive) | > 100 µM (inactive) | > 100 µM (inactive) | > 100 µM (inactive)
Cc1cccc2c1Sc1ccccc1C2NC(=O)CCN(C)C (centres undefined) |  | > 100 µM (inactive) | > 100 µM (inactive) | > 100 µM (inactive) | > 100 µM (inactive) |  | > 100 µM (inactive) | > 100 µM (inactive) | > 100 µM (inactive) | > 100 µM (inactive) | > 100 µM (inactive) | > 100 µM (inactive) | > 100 µM (inactive) | > 100 µM (inactive) | > 100 µM (inactive)
COC(=O)C(=Cc1cc(OC)c(OC)c(OC)c1-c1cc2c(cc1C1(C)OCCS1)OCO2)C(=O)OC (centres undefined) | 15.2 µM (inactive) | 22.3 µM (inactive) | 32.2 µM (inactive) | 24 µM (inactive) | 28 µM (inactive) | 15.8 µM (inactive) |  | 24.6 µM (inactive) | 24.9 µM (inactive) | 26.4 µM (inactive) | 35.6 µM (inactive) | 27.6 µM (inactive) | 29.2 µM (inactive) | 16.3 µM (inactive) | 32.2 µM (inactive)
COc1ccc(NC(=O)/C(=N/O)C(C)=O)cc1 |  | 87.9 µM (inactive) | > 100 µM (inactive) | > 100 µM (inactive) | > 100 µM (inactive) |  | > 100 µM (inactive) | 96.8 µM (inactive) | > 100 µM (inactive) | > 100 µM (inactive) | > 100 µM (inactive) | 42.5 µM (inactive) | > 100 µM (inactive) | > 100 µM (inactive) | > 100 µM (inactive)
COc1ccc(O)cc1 [MEQUINOL] | 44.8 µM (inactive) | 28.6 µM (inactive) | > 100 µM (inactive) | 74.3 µM (inactive) | > 100 µM (inactive) |  | 53.5 µM (inactive) | > 100 µM (inactive) | 44.1 µM (inactive) | 42.8 µM (inactive) | > 100 µM (inactive) | > 100 µM (inactive) | 40.8 µM (inactive) | > 100 µM (inactive) | > 100 µM (inactive)
COC(=O)/C(C#N)=C1\CCC(OC)N1 (centres undefined) | > 100 µM (inactive) | > 100 µM (inactive) | > 100 µM (inactive) | > 100 µM (inactive) | > 100 µM (inactive) | > 100 µM (inactive) | > 100 µM (inactive) | > 100 µM (inactive) | > 100 µM (inactive) | > 100 µM (inactive) | > 100 µM (inactive) | > 100 µM (inactive) | > 100 µM (inactive) | > 100 µM (inactive) | > 100 µM (inactive)
COC(=O)c1sc(=NC(=S)N2CCCCC2)sc1C(=O)OC | 3.01 µM (inactive) | > 100 µM (inactive) | > 100 µM (inactive) | > 100 µM (inactive) | > 100 µM (inactive) | 0.569 µM (active) | > 100 µM (inactive) | > 100 µM (inactive) | > 100 µM (inactive) | 80.9 µM (inactive) |  | > 100 µM (inactive) | > 100 µM (inactive) | > 100 µM (inactive) | > 100 µM (inactive)
CCC12CCCN(Cc3ccccc3)C1c1c(n(C)c3ccccc13)[C@H](C(=O)OC)C2 (some centres undefined) | > 239 µM (inactive) | 120 µM (inactive) | > 239 µM (inactive) | > 239 µM (inactive) | > 239 µM (inactive) | 122 µM (inactive) |  | 146 µM (inactive) | > 239 µM (inactive) | 142 µM (inactive) | > 239 µM (inactive) | > 239 µM (inactive) | > 239 µM (inactive) | > 239 µM (inactive) | > 239 µM (inactive)
